How the values were obtained:
D(2) dopamine receptor [1] = target: T1, D(2) dopamine receptor (Homo sapiens, UniProt P14416); experiment: Displacement of [3H]spiperone from human cloned dopamine D2(short) receptor expressed in CHO cells; assay type: cell-based
D(1A) dopamine receptor = D(1A) dopamine receptor (Sus scrofa, UniProt P50130); experiment: Displacement of [3H]SCH-23390 from dopamine D1 receptor in porcine striatal membrane; assay type: cell membranes, Striatum
D(2) dopamine receptor [2] = target: T1, D(2) dopamine receptor; experiment: Displacement of [3H]spiperone from human cloned dopamine D2(long) receptor expressed in CHO cells; assay type: cell-based
D(3) dopamine receptor [3] = target: T2, D(3) dopamine receptor (Homo sapiens, UniProt P35462); experiment: Displacement of [3H]spiperone from human cloned dopamine D3 receptor expressed in CHO cells; assay type: cell-based
D(4) dopamine receptor [4] = target: T3, D(4) dopamine receptor (Homo sapiens, UniProt P21917); experiment: Displacement of [3H]spiperone from human cloned dopamine D4 receptor expressed in CHO cells; assay type: cell-based
T3 sequence (P21917 whole entry): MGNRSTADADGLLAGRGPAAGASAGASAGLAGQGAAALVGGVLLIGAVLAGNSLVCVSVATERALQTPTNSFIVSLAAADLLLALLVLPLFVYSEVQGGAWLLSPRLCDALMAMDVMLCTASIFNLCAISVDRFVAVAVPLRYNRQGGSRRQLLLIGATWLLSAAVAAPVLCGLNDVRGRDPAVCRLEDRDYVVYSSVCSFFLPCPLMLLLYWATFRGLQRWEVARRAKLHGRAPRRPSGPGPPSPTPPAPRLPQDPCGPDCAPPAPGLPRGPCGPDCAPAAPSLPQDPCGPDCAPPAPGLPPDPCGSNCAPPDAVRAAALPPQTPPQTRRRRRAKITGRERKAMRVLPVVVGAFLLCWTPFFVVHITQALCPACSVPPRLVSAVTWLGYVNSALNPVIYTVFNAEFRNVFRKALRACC

D(3) dopamine receptor [5] = target: T2, D(3) dopamine receptor; experiment: Intrinsic activity against dopamine D3 receptor assessed as [3H]thymidine uptake in CHO cells by mitogenesis assay
D(4) dopamine receptor [6] = target: T3, D(4) dopamine receptor; experiment: Intrinsic activity against dopamine D4 receptor assessed as [3H]thymidine uptake in CHO cells by mitogenesis assay; assay type: functional, cell-based
D(2) dopamine receptor [7] = target: T1, D(2) dopamine receptor; experiment: Intrinsic activity against dopamine D2(long) receptor assessed as [3H]thymidine uptake in CHO cells by mitogenesis assay; assay type: functional, cell-based
D(2) dopamine receptor [8] = target: T1, D(2) dopamine receptor; experiment: Intrinsic activity against dopamine D2(long) receptor assessed as [3H]thymidine uptake in CHO cells relative to quinpirole by mitogenesis assay; assay type: functional, cell-based
D(2) dopamine receptor [9] = target: T1, D(2) dopamine receptor; experiment: Intrinsic activity against dopamine D2(short) receptor assessed as [3H]thymidine uptake in CHO cells relative to quinpirole by mitogenesis assay; assay type: functional, cell-based
[10] = target: 5-hydroxytryptamine receptor 2A (Sus scrofa, UniProt P50129); experiment: Displacement of […] from 5HT2 receptor in porcine striatal membrane; assay type: cell membranes, Striatum
D(2) dopamine receptor [11] = target: T1, D(2) dopamine receptor; experiment: Intrinsic activity against dopamine D2(short) receptor assessed as [3H]thymidine uptake in CHO cells by mitogenesis assay; assay type: functional, cell-based
D(2) dopamine receptor [12] = target: T1, D(2) dopamine receptor; experiment: Intrinsic activity against dopamine D2(short) receptor expressed in CHO cells relative to quinpirole by GTPgammaS assay; assay type: functional, cell-based
D(2) dopamine receptor [13] = target: T1, D(2) dopamine receptor; experiment: Intrinsic activity against dopamine D2(short) receptor expressed in CHO cells by GTPgammaS assay; assay type: functional, cell-based
D(2) dopamine receptor [14] = target: T1, D(2) dopamine receptor; experiment: Intrinsic activity against dopamine D2(long) receptor expressed in CHO cells by GTPgammaS assay; assay type: functional, cell-based
D(2) dopamine receptor [15] = target: T1, D(2) dopamine receptor; experiment: Intrinsic activity against dopamine D2(long) receptor expressed in CHO cells relative to quinpirole by GTPgammaS assay; assay type: functional, cell-based
D(4) dopamine receptor [16] = target: T3, D(4) dopamine receptor; experiment: Intrinsic activity against dopamine D4 receptor expressed in CHO cells by GTPgammaS assay; assay type: functional, cell-based

D(1A) dopamine receptor, sequence (P50130 whole entry): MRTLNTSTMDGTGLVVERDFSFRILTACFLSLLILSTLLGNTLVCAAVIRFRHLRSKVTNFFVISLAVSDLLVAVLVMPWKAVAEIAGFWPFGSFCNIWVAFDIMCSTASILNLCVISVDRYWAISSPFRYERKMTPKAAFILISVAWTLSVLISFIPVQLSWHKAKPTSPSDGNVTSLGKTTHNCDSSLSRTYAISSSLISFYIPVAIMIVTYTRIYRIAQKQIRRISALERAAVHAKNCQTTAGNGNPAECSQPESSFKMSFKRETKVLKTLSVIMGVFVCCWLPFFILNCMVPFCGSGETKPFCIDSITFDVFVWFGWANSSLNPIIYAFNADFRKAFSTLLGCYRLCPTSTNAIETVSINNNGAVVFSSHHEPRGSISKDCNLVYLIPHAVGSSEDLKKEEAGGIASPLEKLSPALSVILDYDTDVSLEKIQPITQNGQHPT
T2 sequence (P35462 whole entry): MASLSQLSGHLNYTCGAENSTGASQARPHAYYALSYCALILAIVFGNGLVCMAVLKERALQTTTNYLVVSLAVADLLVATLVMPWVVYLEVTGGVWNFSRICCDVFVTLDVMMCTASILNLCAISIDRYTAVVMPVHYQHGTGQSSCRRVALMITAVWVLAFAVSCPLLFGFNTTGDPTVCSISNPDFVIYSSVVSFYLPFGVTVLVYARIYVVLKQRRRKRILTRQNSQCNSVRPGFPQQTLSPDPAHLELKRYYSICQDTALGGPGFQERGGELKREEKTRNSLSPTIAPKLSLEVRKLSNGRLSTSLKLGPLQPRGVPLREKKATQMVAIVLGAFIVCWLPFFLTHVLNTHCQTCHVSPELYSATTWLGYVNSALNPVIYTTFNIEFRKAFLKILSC
T1 sequence (P14416 whole entry): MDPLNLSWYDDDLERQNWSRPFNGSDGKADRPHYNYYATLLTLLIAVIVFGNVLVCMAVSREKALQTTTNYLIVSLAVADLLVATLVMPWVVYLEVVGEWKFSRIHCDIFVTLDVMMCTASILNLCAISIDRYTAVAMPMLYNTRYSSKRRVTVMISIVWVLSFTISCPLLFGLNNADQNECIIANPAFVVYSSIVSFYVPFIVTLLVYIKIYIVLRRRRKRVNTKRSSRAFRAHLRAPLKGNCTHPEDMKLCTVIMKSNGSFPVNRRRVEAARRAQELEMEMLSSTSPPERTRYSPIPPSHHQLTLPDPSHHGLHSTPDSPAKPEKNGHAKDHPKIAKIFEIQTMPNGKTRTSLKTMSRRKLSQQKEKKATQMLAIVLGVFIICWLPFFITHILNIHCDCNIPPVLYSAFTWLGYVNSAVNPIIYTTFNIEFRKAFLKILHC
5-hydroxytryptamine receptor 2A, sequence (P50129 whole entry): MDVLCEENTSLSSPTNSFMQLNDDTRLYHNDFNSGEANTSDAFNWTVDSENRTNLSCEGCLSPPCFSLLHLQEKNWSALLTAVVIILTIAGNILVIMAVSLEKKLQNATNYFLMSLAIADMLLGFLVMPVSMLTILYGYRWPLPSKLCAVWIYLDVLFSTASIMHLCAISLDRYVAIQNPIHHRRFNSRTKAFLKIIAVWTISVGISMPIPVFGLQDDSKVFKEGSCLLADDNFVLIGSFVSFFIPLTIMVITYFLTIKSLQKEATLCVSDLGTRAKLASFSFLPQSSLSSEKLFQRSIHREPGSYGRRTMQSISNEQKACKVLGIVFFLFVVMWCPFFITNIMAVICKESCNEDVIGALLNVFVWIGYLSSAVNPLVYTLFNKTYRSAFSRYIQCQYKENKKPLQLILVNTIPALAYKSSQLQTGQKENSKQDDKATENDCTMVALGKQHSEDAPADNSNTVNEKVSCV

Structure (SMILES) | Ki (D(2) dopamine receptor [1]; read-out: Ki) [µM] | Ki (D(1A) dopamine receptor) [µM] | Ki (D(2) dopamine receptor [2]) [µM] | Ki (D(3) dopamine receptor [3]) [µM] | Ki (D(4) dopamine receptor [4]) [µM] | further results
c1ccc(N2CCN(Cc3cnn(-c4ccccc4)c3)CC2)cc1 | 0.075 | 1.6 | 0.14 | 0.14 | 0.001 | –
Cc1c(CN2CCN(c3ccccc3)CC2)cnn1-c1ccccc1 | 0.25 | 0.56 | 0.63 | 0.32 | 0.0053 | –
Fc1ccccc1N1CCN(Cc2cnn(-c3ccccc3)c2)CC1 | 0.037 | 0.68 | 0.063 | 0.067 | 0.0007 | –
c1ccc(N2CCN(Cc3cn(-c4ccccc4)nn3)CC2)cc1 | 0.86 | 21 | 1.5 | 1.2 | 0.0099 | –
Fc1ccc(N2CCN(Cc3cnn(-c4ccccc4)c3)CC2)cc1 | 0.4 | 1.9 | 0.45 | 0.54 | 0.0029 | –
COc1ccccc1N1CCN(Cc2cn(-c3ccccc3)nn2)CC1 | 0.065 | 27 | 0.12 | 0.34 | 0.0027 | –
c1ccc(N2CCN(Cc3cnn(-c4ccccn4)c3)CC2)cc1 | 0.19 | 1.6 | 0.34 | 0.16 | 0.0026 | –
c1ccc(N2CCN(Cc3ccc(-n4cccn4)cc3)CC2)cc1 | 2.4 | 7.6 | 3 | 2.1 | 0.02 | –
Clc1ccc(N2CCN(Cc3cnn(-c4ccccc4)c3)CC2)cc1 | – | 7.5 | 2.9 | 1.9 | 0.0029 | Ki (D(2) dopamine receptor [1]): 1.9 µM
c1ccc(-n2cc(CN3CCN(c4ncccn4)CC3)cn2)cc1 | 14 | 7.1 | 6 | 2.9 | 0.31 | –
COc1ccccc1N1CCN(Cc2cnn(-c3ccccn3)c2)CC1 | 0.031 | 1.9 | 0.04 | 0.072 | 0.00044 | –
C1=C(c2ccccc2)CCN(Cc2cn(-c3ccccc3)nn2)C1 | 0.11 | 10 | 0.22 | 0.094 | 0.0032 | –
COc1ccccc1N1CCN(Cc2cnn(-c3ccccc3)c2)CC1 | 0.008 | 1 | 0.011 | 0.035 | 0.00028 | EC50 (D(3) dopamine receptor [5]): 0.00021 µM; EC50 (D(4) dopamine receptor [6]): 0.0006 µM; EC50 (D(2) dopamine receptor [7]): 0.00028 µM; Efficacy (D(2) dopamine receptor [8]): 56%; Efficacy (D(2) dopamine receptor [9]): 66%; Ki [10]: 1.3 µM; EC50 (D(2) dopamine receptor [11]): 0.00022 µM
c1ccc(-c2c[nH]c(CN3CCN(c4ccccc4)CC3)c2)cc1 | – | 2.1 | – | 0.514 | – | –
Cc1nn(-c2ccccc2)cc1CN1CCN(c2ccccc2)CC1 | 0.043 | 3.9 | 0.071 | 0.36 | 0.001 | –
C1=C(c2ccccc2)CCN(Cc2cnn(-c3ccccc3)c2)C1 | 0.028 | 3 | 0.038 | 0.033 | 0.00059 | Efficacy (D(2) dopamine receptor [12]): 17%; EC50 (D(3) dopamine receptor [5]): 0.0033 µM; EC50 (D(4) dopamine receptor [6]): 0.0056 µM; EC50 (D(2) dopamine receptor [7]): 0.003 µM; Efficacy (D(2) dopamine receptor [8]): 54%; EC50 (D(2) dopamine receptor [13]): 0.032 µM; EC50 (D(2) dopamine receptor [14]): 0.025 µM; Efficacy (D(2) dopamine receptor [9]): 30%; Ki [10]: 2.1 µM; Efficacy (D(2) dopamine receptor [15]): 45%; EC50 (D(2) dopamine receptor [11]): 0.0017 µM; EC50 (D(4) dopamine receptor [16]): 0.0095 µM

— ChEMBL document CHEMBL1147793, “Synthesis and biological investigations of dopaminergic partial agonists preferentially recognizing the D4 receptor subtype” (Bioorg Med Chem Lett, 2006)
